{"source": "patent USRE37781E1", "about": "“Substituted cyclic carbonyls and derivatives thereof useful as retroviral protease inhibitors” (DuPont Pharmaceuticals Company, priority 1991, dated 2002)", "key": {"HIV-1 (RF) in MT-2 cells": {"test_system": "HIV-1 (RF) in MT-2 cells", "assay": "microbe, parasite or virus in culture", "format": "cell-based", "conditions": "Human immunodeficiency virus 1, MT2, 48 h, Table 2d, read-out: IC90", "outline": "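Read-out: gag and pol viral RNA captured by 5′-biotinylated oligonucleotides on streptavidin-coated wells, detected with alkaline phosphatase-linked reporter oligonucleotides, calibrated against BH10 in vitro transcripts. Virus stocks (RF, MN, IIIB) come from H9 cultures; MT-2 host cells kept in RPMI 1640, 5% FCS.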"}, "[1]": {"target": "single-chain tethered dimer of HIV protease (Human immunodeficiency virus 1, UniProt P04585)", "assay": "biochemical", "format": "biochemical", "design": "fused on or other part: A second copy of the same protease unit is joined to the first by a short peptide tether, giving one polypeptide", "conditions": "read-out: HPLC K1, Table 2d"}, "[2]": {"conditions": "HIV protease inhibition, HPLC method"}}, "note": "Counter-ions that a name gives are not always drawn. Like-named read-outs stand apart in the source and are kept apart here."}
{"smiles": "N#CN=C1N(Cc2cccc([N+](=O)[O-])c2)[C@H](Cc2ccccc2)[C@H](O)[C@@H](O)[C@@H](Cc2ccccc2)N1Cc1cccc([N+](=O)[O-])c1", "values": [{"measurement": "melting point", "result": 114, "unit": "°C"}]}
{"smiles": "Nc1cccc(CN2C(=O)N(CC3CC3)C(Cc3ccccc3)C(O)C(O)C2Cc2ccccc2)c1", "note": "(stereo not shown) (as salt: HCl) [15G]", "values": [{"measurement": "melting point", "result": 108.9, "unit": "°C"}]}
{"smiles": "CNc1cccc(CN2C(=O)N(Cc3ccc(CO)cc3)C(Cc3ccccc3)C(O)C(O)C2Cc2ccccc2)c1", "note": "(stereo not shown) (as salt: HCl) [15M]", "values": [{"measurement": "melting point", "result": 107.6, "unit": "°C"}]}
{"smiles": "NCC(=O)Nc1cccc(CN2C(=O)N(Cc3cccc(NC(=O)CN)c3)C(Cc3ccccc3)C(O)C(O)C2Cc2ccccc2)c1", "note": "(stereo not shown) (as salt: HCl) [15R]", "values": [{"measurement": "melting point", "result": 233.7, "unit": "°C"}]}
{"smiles": "CCC(=O)CN1C(=O)N(CC(=O)CC)C(Cc2ccccc2)C(O)C(O)C1Cc1ccccc1", "note": "(stereo not shown) [Example 15VO]", "values": [{"measurement": "IC90", "setting": "HIV-1 (RF) in MT-2 cells; class symbols", "result": "> 50", "unit": "µg/mL"}, {"measurement": "Ki", "setting": "[1]; class symbols", "result": "10 to 1000", "unit": "nM"}]}
{"smiles": "CCC(CN1C(=O)N(CC(CC)=NO)C(Cc2ccccc2)C(O)C(O)C1Cc1ccccc1)=NO", "note": "(stereo not shown) [Example 15VP]", "values": [{"measurement": "IC90", "setting": "HIV-1 (RF) in MT-2 cells; class symbols", "result": "10 to 100", "unit": "µg/mL"}, {"measurement": "Ki", "setting": "[1]; class symbols", "result": "10 to 1000", "unit": "nM"}]}
{"smiles": "O=C1N(CCCCCCO)C(Cc2ccccc2)C(O)C(O)C(Cc2ccccc2)N1Cc1ccc2ccccc2c1", "note": "(stereo not shown) [Example 15VQ]", "values": [{"measurement": "IC90", "setting": "HIV-1 (RF) in MT-2 cells; class symbols", "result": "< 10", "unit": "µg/mL"}, {"measurement": "Ki", "setting": "[1]; class symbols", "result": "< 10", "unit": "nM"}]}
{"smiles": "O=C1N(CCCCCO)C(Cc2ccccc2)C(O)C(O)C(Cc2ccccc2)N1Cc1cccc(O)c1", "note": "(stereo not shown) [Example 15VR]", "values": [{"measurement": "IC90", "setting": "HIV-1 (RF) in MT-2 cells; class symbols", "result": "< 10", "unit": "µg/mL"}, {"measurement": "Ki", "setting": "[1]; class symbols", "result": "< 10", "unit": "nM"}]}
{"smiles": "O=C1N(CCCCCO)C(Cc2ccccc2)C(O)C(O)C(Cc2ccccc2)N1CC1CC1", "note": "(stereo not shown) [Example 15VU]", "values": [{"measurement": "IC90", "setting": "HIV-1 (RF) in MT-2 cells; class symbols", "result": "< 10", "unit": "µg/mL"}, {"measurement": "Ki", "setting": "[1]; class symbols", "result": "< 10", "unit": "nM"}]}
{"smiles": "COCCCCCN1C(=O)N(CCCCCOC)C(Cc2ccccc2)C(O)C(O)C1Cc1ccccc1", "note": "(stereo not shown) [Example 15VV]", "values": [{"measurement": "IC90", "setting": "HIV-1 (RF) in MT-2 cells; class symbols", "result": "10 to 100", "unit": "µg/mL"}, {"measurement": "Ki", "setting": "[1]; class symbols", "result": "10 to 1000", "unit": "nM"}]}
{"smiles": "COCCCCCN1C(=O)N(CCCCCO)C(Cc2ccccc2)C(O)C(O)C1Cc1ccccc1", "note": "(stereo not shown) [Example 15VW]", "values": [{"measurement": "IC90", "setting": "HIV-1 (RF) in MT-2 cells; class symbols", "result": "< 10", "unit": "µg/mL"}, {"measurement": "Ki", "setting": "[1]; class symbols", "result": "< 10", "unit": "nM"}]}
{"smiles": "N#Cc1cccc(CN2C(=O)N(CCCCCO)C(Cc3ccccc3)C(O)C(O)C2Cc2ccccc2)c1", "note": "(stereo not shown) [Example 15VX]", "values": [{"measurement": "IC90", "setting": "HIV-1 (RF) in MT-2 cells; class symbols", "result": "< 10", "unit": "µg/mL"}, {"measurement": "Ki", "setting": "[1]; class symbols", "result": "< 10", "unit": "nM"}]}
{"smiles": "CCOC(=O)c1cccc(CN2C(=O)N(CCCCCO)C(Cc3ccccc3)C(O)C(O)C2Cc2ccccc2)c1", "note": "(stereo not shown) [Example 15VY]", "values": [{"measurement": "IC90", "setting": "HIV-1 (RF) in MT-2 cells; class symbols", "result": "< 10", "unit": "µg/mL"}, {"measurement": "Ki", "setting": "[1]; class symbols", "result": "< 10", "unit": "nM"}]}
{"smiles": "CC(O)CCCCN1C(=O)N(CCCCC(C)O)C(Cc2ccccc2)C(O)C(O)C1Cc1ccccc1", "note": "(stereo not shown) [Example 15VZ]", "values": [{"measurement": "IC90", "setting": "HIV-1 (RF) in MT-2 cells; class symbols", "result": "< 10", "unit": "µg/mL"}, {"measurement": "Ki", "setting": "[1]; class symbols", "result": "< 10", "unit": "nM"}]}
{"smiles": "CC(=O)CCCCN1C(=O)N(CCCCC(C)=O)C(Cc2ccccc2)C(O)C(O)C1Cc1ccccc1", "note": "(stereo not shown) [Example 15WB]", "values": [{"measurement": "IC90", "setting": "HIV-1 (RF) in MT-2 cells; class symbols", "result": "10 to 100", "unit": "µg/mL"}, {"measurement": "Ki", "setting": "[1]; class symbols", "result": "10 to 1000", "unit": "nM"}]}
{"smiles": "CC(CCCCN1C(=O)N(CCCCC(C)=NO)C(Cc2ccccc2)C(O)C(O)C1Cc1ccccc1)=NO", "note": "(stereo not shown) [Example 15WC]", "values": [{"measurement": "IC90", "setting": "HIV-1 (RF) in MT-2 cells; class symbols", "result": "< 10", "unit": "µg/mL"}, {"measurement": "Ki", "setting": "[1]; class symbols", "result": "10 to 1000", "unit": "nM"}]}
{"smiles": "NCCCCCCN1C(=O)N(Cc2ccc(CO)cc2)C(Cc2ccccc2)C(O)C(O)C1Cc1ccccc1", "note": "(stereo not shown) [Example 15WD]", "values": [{"measurement": "IC90", "setting": "HIV-1 (RF) in MT-2 cells; class symbols", "result": "< 10", "unit": "µg/mL"}, {"measurement": "Ki", "setting": "[1]; class symbols", "result": "10 to 1000", "unit": "nM"}]}
{"smiles": "O=C1N(CCCCCO)C(Cc2ccccc2)C(O)C(O)C(Cc2ccccc2)N1Cc1cccc(CO)c1", "note": "(stereo not shown) [Example 15WE]", "values": [{"measurement": "IC90", "setting": "HIV-1 (RF) in MT-2 cells; class symbols", "result": "< 10", "unit": "µg/mL"}, {"measurement": "Ki", "setting": "[1]; class symbols", "result": "< 10", "unit": "nM"}]}
{"smiles": "CNCc1cccc(CN2C(=O)N(Cc3cccc(CNC)c3)C(Cc3ccccc3)C(O)C(O)C2Cc2ccccc2)c1", "note": "(stereo not shown) [Example 15XC]", "values": [{"measurement": "IC90", "setting": "HIV-1 (RF) in MT-2 cells; HIV RNA assay", "result": "< 10", "unit": "µg/mL"}, {"measurement": "Ki", "setting": "[1]; [2]", "result": "10 to 1000", "unit": "nM"}]}
{"smiles": "O=C1N(Cc2ccc(CO)cc2)C(Cc2ccccc2)C(O)C(O)C(Cc2ccccc2)N1Cc1cccnc1", "note": "(stereo not shown) [Example 15XE]", "values": [{"measurement": "IC90", "setting": "HIV-1 (RF) in MT-2 cells; HIV RNA assay", "result": "< 10", "unit": "µg/mL"}, {"measurement": "Ki", "setting": "[1]; [2]", "result": "< 10", "unit": "nM"}]}
{"smiles": "CCN(CC)Cc1cccc(CN2C(=O)N(Cc3cccc(CN(CC)CC)c3)C(Cc3ccccc3)C(O)C(O)C2Cc2ccccc2)c1", "note": "(stereo not shown) [Example 15XF]", "values": [{"measurement": "IC90", "setting": "HIV-1 (RF) in MT-2 cells; HIV RNA assay", "result": "< 10", "unit": "µg/mL"}, {"measurement": "Ki", "setting": "[1]; [2]", "result": "10 to 1000", "unit": "nM"}]}
{"smiles": "O=C1N(Cc2cccc(Cn3ccnc3)c2)C(Cc2ccccc2)C(O)C(O)C(Cc2ccccc2)N1Cc1cccc(Cn2ccnc2)c1", "note": "(stereo not shown) [Example 15XG]", "values": [{"measurement": "IC90", "setting": "HIV-1 (RF) in MT-2 cells; HIV RNA assay", "result": "< 10", "unit": "µg/mL"}, {"measurement": "Ki", "setting": "[1]; [2]", "result": "< 10", "unit": "nM"}]}
{"smiles": "CC(C)(C)C(=O)c1cccc(CN2C(=O)N(Cc3cccc(C(=O)C(C)(C)C)c3)C(Cc3ccccc3)C(O)C(O)C2Cc2ccccc2)c1", "note": "(stereo not shown) [Example 15XH]", "values": [{"measurement": "IC90", "setting": "HIV-1 (RF) in MT-2 cells; HIV RNA assay", "result": "< 10", "unit": "µg/mL"}, {"measurement": "Ki", "setting": "[1]; [2]", "result": "< 10", "unit": "nM"}]}
{"smiles": "O=C1N(Cc2cccc(C(O)C(F)(F)F)c2)C(Cc2ccccc2)C(O)C(O)C(Cc2ccccc2)N1Cc1cccc(C(O)C(F)(F)F)c1", "note": "(stereo not shown) [Example 15XI]", "values": [{"measurement": "IC90", "setting": "HIV-1 (RF) in MT-2 cells; HIV RNA assay", "result": "< 10", "unit": "µg/mL"}, {"measurement": "Ki", "setting": "[1]; [2]", "result": "< 10", "unit": "nM"}]}
{"smiles": "O=C(c1cccc(CN2C(=O)N(Cc3cccc(C(=O)c4ncc[nH]4)c3)C(Cc3ccccc3)C(O)C(O)C2Cc2ccccc2)c1)c1ncc[nH]1", "note": "(stereo not shown) [Example 15XJ]", "values": [{"measurement": "IC90", "setting": "HIV-1 (RF) in MT-2 cells; HIV RNA assay", "result": "< 10", "unit": "µg/mL"}, {"measurement": "Ki", "setting": "[1]; [2]", "result": "< 10", "unit": "nM"}]}
